In patent publication US4038384A, “Antibiotic A-28086 and process for production thereof” (Eli Lilly and Company, priority 1975, dated 1977):

Key:
[1] = Electrometric titration in 80% aqueous dimethylformamide (pKa)
[2] = tested on: Staphylococcus aureus (H-Heatley) NRRL B-314; assay: Turbidometric assay (Autoturb), relative gram-positive activity; type: cell-based; conditions: relative to A-28086 factor A standard = 1; nutrient broth pH 7, 4 hours, 37° C.
Experimental: The C2 -C6 -acyl ester derivatives of A-28086 factor A also have antibacterial and antifungal activity. In one aspect, these derivatives have increased gram-positive activity. The relative gram-positive activities of certain of these derivatives were compared with the activity of factor A. The compounds were tested by turbidometric assay on a semiautomated system (Autoturb microbiological assay system, Elanco) described by N. R. Kuzel and F. W. Kavanaugh in J. Pharmaceut. Sci. 60 (5), 764 and 767 (1971). In testing the A-28086 antibiotics, the following test parameters were used: Staphylococcus aureus (H-Heatley) NRRL B-314 in a nutrient broth medium (pH 7), incubated for 4 hours at 37° C. Test samples and the standard were dissolved in methanol-water (10:90). The standard, A-28086 factor A, was presented to the Autoturb carrousel at concentrations of 2, 3, 4, and 5 mcg/ml. Test compounds were diluted to contain approximately 3 or 4 mcg of activity per ml, as presented to the carrousel. The relative activities of test compounds, as compared to that of the standard, are given below: […]

[3] = tested on: rumen flora; assay: In vitro rumen fluid test, volatile fatty acid production; type: cell-based, steer; conditions: 1 ppm in rumen fluid, 16 hours, 38° C.
Source text: As discussed hereinabove, efficiency of carbohydrate utilization in ruminants is increased by treatments which stimulate the animal's rumen flora to produce propionate compounds rather than acetate or butyrate compounds. The efficiency of feed use can be monitored by observing the production and concentration of propionate compounds in the rumen, using the following methods:
Rumen fluid is obtained from a steer with a surgically-installed fistula opening into the rumen. The steer is maintained on a high-grain ration. A sample of rumen fluid is strained through four layers of cheesecloth, and the filtrate is collected. The particulate matter retained by the cheesecloth is resuspended in enough physiological buffer to return it to the original volume of the rumen fluid, and this suspension is strained again. The buffer used has the following composition:
The two filtrates are combined and allowed to stand until particulate matter separates to the top. The clear layer is separated, diluted with the same buffer (1:1) and then adjusted to between pH 6.8 to 7.0.
The diluted rumen fluid (10 ml) is placed in a 25-ml flask with 40 mg of the above-described feed, an additional 1 mg of soybean protein, and the compound to be tested. Four replicate flasks are used per treatment. Two sets of four control flasks each are also employed. A zero-time control and an incubated 16-hour control are used. All test flasks are incubated for 16 hours at 38° C. […] The samples are allowed to settle, and the supernatants are analyzed by gas chromatography for propionate, acetate, and butyrate compounds.

[4] = tested on: ruminal propionic acid; assay: In vivo ruminal propionic acid concentration in fistulated steers; conditions: 100 mg/day, mean of five analyses in 14 days
Experimental: The test reported in Table XII was conducted with mature fistulated steers weighing about 1,000 lbs. each. Two steers were fed a normal diet, and four steers in each treatment group were fed an identical diet to which A-28086 factor A had been added. To each aliquot (100 ml) of rumen fluid taken, 10 percent metaphosphoric acid (100 ml) was added. The samples were allowed to settle, and the supernatants were analyzed by gas chromatographic methods to determine propionic acid concentrations.
The results in Table XII are the mean percent increases in ruminal propionic acid concentration, averaged over five analyses in a 14-day treatment period. Controls had approximately 20 molar percent propionic acid.

[5] = tested on: Eimeria tenella; assay: Anticoccidial activity in chicks against Eimeria tenella; type: in vivo, Eimeria tenella; chickens; conditions: for Percent Weight Gain: normal controls 100
[6] = In vivo feed-utilization efficiency in sheep; conditions: 56 days
[7] = Solubility in water and organic solvents; type: physicochemical; conditions: nonpolar organic solvents such as hexane
[8] = tested on: E. tenella, E. necatrix, E. maxima, E. brunetti, E. acervulina, and E. mivati; assay: Anticoccidial activity in chicks against mixed Eimeria species; type: in vivo; conditions: 0.01% in feed
Source text: (§1) ^1 Four replicates, 5 broiler cockerels each.

[9] = tested on: E. necatrix and E. tenella; assay: as above; type: in vivo, E. necatrix and E. tenella; broiler cockerels; conditions: 0.005% in feed
Source text: as §1

[10] = General microbiological (antibacterial/antifungal) activity; type: cell-based; conditions: in words

Compound: CCC(C(=O)O)C1OC(C(C)C(O)C(C)C(=O)C(CC)C2OC3(C=CC(OC(C)=O)C4(CCC(C)(C5CCC(O)(CC)C(C)O5)O4)O3)C(C)CC2C)C(C)CC1C (stereo not shown) [A-28086 factor A acetyl ester derivative, A-28086 factor A acetyl ester]
- pKa value of titratable group [1]: 8.5
- Relative G^+ Activity [2]: 2.5
- Ratio of Treated to Control, Molar % acetate [3]: 0.79
- Ratio of Treated to Control, Molar % butyrate [3]: 0.76

Compound: CCCC(=O)OC1C=CC2(OC(C(CC)C(=O)C(C)C(O)C(C)C3OC(C(CC)C(=O)O)C(C)CC3C)C(C)CC2C)OC12CCC(C)(C1CCC(O)(CC)C(C)O1)O2 (stereo not shown) [A-28086 factor A n-butyryl ester derivative]
- Relative G^+ Activity [2]: 8
- Ratio of Treated to Control, Molar % acetate [3]: 0.91
- Ratio of Treated to Control, Molar % butyrate [3]: 0.81

Compound: CCCCCC(=O)OC1C=CC2(OC(C(CC)C(=O)C(C)C(O)C(C)C3OC(C(CC)C(=O)O)C(C)CC3C)C(C)CC2C)OC12CCC(C)(C1CCC(O)(CC)C(C)O1)O2 (stereo not shown) [A-28086 factor A n-caproyl ester derivative]
- Relative G^+ Activity [2]: 20
- Ratio of Treated to Control, Molar % acetate [3]: 0.86
- Ratio of Treated to Control, Molar % butyrate [3]: 0.97
- Ratio of Treated to Control, Total VFA mM/l [3]: 0.99

Compound: CCCCC(=O)OC1C=CC2(OC(C(CC)C(=O)C(C)C(O)C(C)C3OC(C(CC)C(=O)O)C(C)CC3C)C(C)CC2C)OC12CCC(C)(C1CCC(O)(CC)C(C)O1)O2 (stereo not shown) [A-28086 factor A n-valeryl ester derivative]
- Relative G^+ Activity [2]: 14
- Ratio of Treated to Control, Molar % acetate [3]: 0.92
- Ratio of Treated to Control, Molar % butyrate [3]: 0.79

Compound: CCC(=O)OC1C=CC2(OC(C(CC)C(=O)C(C)C(O)C(C)C3OC(C(CC)C(=O)O)C(C)CC3C)C(C)CC2C)OC12CCC(C)(C1CCC(O)(CC)C(C)O1)O2 (stereo not shown) [A-28086 factor A propionyl ester derivative]
- Relative G^+ Activity [2]: 7
- Ratio of Treated to Control, Molar % acetate [3]: 0.90
- Ratio of Treated to Control, Molar % butyrate [3]: 0.68

Compound: CCC(C(=O)O)C1OC(C(C)C(O)C(C)C(=O)C(CC)C2OC3(C=CC(O)C4(CCC(C)(C5CCC(O)(CC)C(C)O5)O4)O3)C(C)CC2C)C(C)CC1C (stereo not shown) [A-28086 factor A]
- Percent Increase Over Control in ruminal propionic acid concentration [4]: 54.0%
- Percent Reduction in Lesion Score ([5]; 0.0025% in feed, second group): 0%
- Percent Mortality ([5]; 0.0025% in feed, second group (20 chickens)): 10%
- Percent Weight Gain ([5]; 0.0025% in feed, second group): 87%
- Average Lesion Score ([5]; 0.005% in feed, second group): 2.8
- Percent Reduction in Lesion Score ([5]; 0.005% in feed, second group): 27%
- Percent Mortality ([5]; 0.005% in feed, second group (20 chickens)): 0%
- Percent Weight Gain ([5]; 0.005% in feed, second group): 91%
- Average Lesion Score ([5]; 0.01% in feed, first group): 0.2
- Percent Reduction in Lesion Score ([5]; 0.01% in feed, first group): 95%
- Percent Mortality ([5]; 0.01% in feed, first group (10 chickens)): 0%
- Percent Weight Gain ([5]; 0.01% in feed, first group): 94%
- Average Lesion Score ([5]; 0.01% in feed, second group): 0
- Percent Reduction in Lesion Score ([5]; 0.01% in feed, second group): 100%
- Percent Mortality ([5]; 0.01% in feed, second group (20 chickens)): 0%
- Percent Weight Gain ([5]; 0.01% in feed, second group): 96%
- Average Lesion Score ([5]; 0.02% in feed, first group): 0.2
- Percent Reduction in Lesion Score ([5]; 0.02% in feed, first group): 95%
- Percent Mortality ([5]; 0.02% in feed, first group (10 chickens)): 0%
- Percent Weight Gain ([5]; 0.02% in feed, first group): 82%
- Average Lesion Score ([5]; 0.02% in feed, second group): 0
- Percent Reduction in Lesion Score ([5]; 0.02% in feed, second group): 100%
- Percent Mortality ([5]; 0.02% in feed, second group (20 chickens)): 0%
- Percent Weight Gain ([5]; 0.02% in feed, second group): 84%
- Average Lesion Score ([5]; 0.04% in feed, first group): 0
- Percent Reduction in Lesion Score ([5]; 0.04% in feed, first group): 100%
- Percent Mortality ([5]; 0.04% in feed, first group (10 chickens)): 0%
- Percent Weight Gain ([5]; 0.04% in feed, first group): 50%
- Feed/Grain ([6]; 9 g per ton of feed): 7.40
- Feed/Grain ([6]; 18 g per ton of feed): 8.31
- solubility in nonpolar organic solvents [7]: only slightly soluble
- pKa value of titratable group [1]: 7.9
- Relative G^+ Activity [2]: 1
- Cecal Lesions Percent Reducton [8]: 73%
- Ratio of Treated to Control, Molar % acetate [3]: 0.94
- Ratio of Treated to Control, Molar % butyrate [3]: 0.87
- Cecal Lesions Percent Reducton [9]: 50%

Compound: CCC(C(=O)OC)C1OC(C(C)C(O)C(C)C(=O)C(CC)C2OC3(C=CC(O)C4(CCC(C)(C5CCC(O)(CC)C(C)O5)O4)O3)C(C)CC2C)C(C)CC1C (stereo not shown) [A-28086-I]
- microbiological activity [10]: not microbiologically active
